From ChEMBL document CHEMBL5360524 (Bioorg Med Chem, 2022)

Columns and labels:
[1] = test system: Serratia marcescens; assay: Antibacterial activity against Serratia marcescens assessed as inhibition of bacterial growth measured after 96 hrs relative to control; type: functional
[2] = test system: Serratia marcescens; assay: Antibacterial activity against Serratia marcescens assessed as inhibition of bacterial growth measured after 168 hrs relative to control; type: functional

## COc1cc(C=O)ccc1O [VANILLIN]
[1]
  inhibition (INH): 0.3%
[2]
  inhibition (INH): 0.4%
